Experimental data published in US12064426B2, “Selective inhibitors of ROCK1 and ROCK2 protein kinases and uses thereof” (GENOSCO Inc., priority 2021, dated 2024).
pEC50, pIC50: −log10 of the molar value.

Tests used:
[1] = tested on: ROCK1/2 in A7r5 cells (pMLC2 levels); experiment: Inhibition of ROCK1/2 in A7r5 cells, cell-based ELISA of phospho-myosin light chain (pMLC2, Thr18/Ser19); settings: Rattus norvegicus, 1.5 h, treated with test compounds for 90 minutes, read-out: pMLC2 (cellular EC50)
Protocol: Inhibition of ROCK1/2 in A7r5 cells was measured through cell-based ELISA assay. Rat aortic smooth muscle cell line A7r5 cells were maintained and treated in DMEM medium with 10% fetal bovine serum. Cells were seeded with 5,000 cells/well in 96 well plates for 24 hours and subsequently treated with test compounds for 90 minutes. Cells were then fixed and processed according to the In-Cell ELISA Colrimetric Detection Kit manual (Thermo Scientific). Cellular phospho-myosin light chain (pMLC2, Thr18/Ser19) levels were determined after treatment with DMSO control or a test compound using the In-Cell ELISA kit.
The resulting data was applied to the following formula ‘[1-(compound/DMSO)]×100%’ to calculate the percent inhibition rate. pMLC2 data obtained from 9 points 3-fold serial dilution of compounds were applied to the nonlinear regression curve fit function of the GraphPad Prism software to calculate the cellular EC50 values.

[2] = biological target: T1, Recombinant ROCK1 (amino acids 1-477) (Homo sapiens, UniProt Q13464); experiment: ROCK inhibition assay, LANCE Ultra TR-FRET kinase assay (ROCK1); assay type: biochemical; settings: 1 μM ATP, 50 nM ULight-CREBtide substrate
T1 construct: Recombinant ROCK1 (amino acids 1-477); by word order, ROCK1 from Carna Biosciences
T1 sequence (Q13464 1-477): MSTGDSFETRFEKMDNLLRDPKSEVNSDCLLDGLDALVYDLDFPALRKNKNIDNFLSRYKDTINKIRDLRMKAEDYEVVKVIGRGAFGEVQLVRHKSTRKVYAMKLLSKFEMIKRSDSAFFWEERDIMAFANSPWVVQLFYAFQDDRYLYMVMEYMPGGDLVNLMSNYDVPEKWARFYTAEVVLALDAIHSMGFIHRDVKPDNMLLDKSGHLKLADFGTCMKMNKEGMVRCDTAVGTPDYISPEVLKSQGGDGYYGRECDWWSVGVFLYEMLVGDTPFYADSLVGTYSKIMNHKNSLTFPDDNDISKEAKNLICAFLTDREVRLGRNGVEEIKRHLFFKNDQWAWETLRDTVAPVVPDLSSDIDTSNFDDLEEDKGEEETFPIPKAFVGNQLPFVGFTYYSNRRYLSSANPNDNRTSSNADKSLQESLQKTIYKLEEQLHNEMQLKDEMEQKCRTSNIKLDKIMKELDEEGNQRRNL
How it was run: (§1)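 LANCE Ultra TR-FRET kinase assay with recombinant ROCK1 (aa 1-477) or ROCK2 (aa 5-554), 50 nM ULight-CREBtide and ATP at 1 μM (ROCK1) or 4 μM (ROCK2) in HEPES pH 7.5 with MgCl2, 1 h at room temperature. EDTA stop with Eu anti-phospho-CREB Ser133 antibody; 665/615 nm read gives IC50.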

[3] = biological target: T2, Recombinant ROCK2 (amino acids 5-554) (Homo sapiens, UniProt O75116); experiment: ROCK inhibition assay, LANCE Ultra TR-FRET kinase assay (ROCK2); assay type: biochemical; settings: 4 μM ATP, 50 nM ULight-CREBtide substrate
T2 construct: ROCK2 (amino acids 5-554); by word order, ROCK2 from SignalChem
T2 sequence (O75116 5-554): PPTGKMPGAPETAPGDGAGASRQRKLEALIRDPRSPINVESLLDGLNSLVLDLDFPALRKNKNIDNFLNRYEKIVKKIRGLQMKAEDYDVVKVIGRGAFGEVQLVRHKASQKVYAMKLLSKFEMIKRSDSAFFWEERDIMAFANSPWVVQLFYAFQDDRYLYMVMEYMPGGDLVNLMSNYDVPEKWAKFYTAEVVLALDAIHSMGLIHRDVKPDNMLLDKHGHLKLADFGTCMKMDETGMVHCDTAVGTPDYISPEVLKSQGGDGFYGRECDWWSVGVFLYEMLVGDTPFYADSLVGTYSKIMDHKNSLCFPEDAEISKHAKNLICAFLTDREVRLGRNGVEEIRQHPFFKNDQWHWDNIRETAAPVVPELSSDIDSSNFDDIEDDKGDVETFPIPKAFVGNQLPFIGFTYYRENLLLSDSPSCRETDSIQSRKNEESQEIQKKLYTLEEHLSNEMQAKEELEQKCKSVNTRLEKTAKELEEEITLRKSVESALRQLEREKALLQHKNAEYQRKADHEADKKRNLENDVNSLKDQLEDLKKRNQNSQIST
How it was run: as §1

| pEC50 [1] | pIC50 [2] | pIC50 [3] | SMILES |
| --- | --- | --- | --- |
| > 7.00 | 7.00 to 7.96 | > 8.00 | CNC(=O)c1cccc([C@@H](C)n2cnc3cc(-c4cn[nH]c4Cl)ccc3c2=O)c1 [Compound 466] |
| > 7.00 | 7.00 to 7.96 | > 8.00 | CNC(=O)c1cccc([C@@H](C)n2cnc3cc(-c4conc4C)ccc3c2=O)c1 [Compound 469] |
